# Test: Particle size of the final powder dispersed in distilled water, particle size analyzer (Mastersizer Microplus)
# Assay type: physicochemical
# Protocol: Next, the pressure inside the collecting reactor containing the sprayed solid powders was elevated to about 150 atm by adding carbon dioxide gas into the collecting reactor. The pressure inside the collecting reactor was constantly maintained to the pressure of 100 atm or more by controlling a vent valve of the collecting reactor, while continuously adding the carbon dioxide gas. Under the constantly maintained pressure, the cetyl alcohol used as a solid fat was extracted for 8 hours with the gas of the supercritical fluid to obtain 1.8 g of fat-removed fine solid particles. The particle size of the obtained powdered mixture was determined by a particle size analyzer (Mastersizer Microplus) by dispersing the obtained powdered mixture into distilled water, and the result was shown in Table 1.
# 30 g of cetyl alcohol and 2 g of ketoconazole were placed into a 250 ml volume beaker and heated to 80° C. with stirring until the mixture became completely melt to form a transparent liquid. After completely melting the mixture, additional stirring for about 10 minutes was further carried out for homogeneous mixing. Then, the melted mixture was poured into a stainless steel plate which was precooled to 10° C. or less for rapid cooling and solidifying, thereby obtaining the solid product in which the active ingredient was dispersed uniformly into the fat in the form of fine particles. […]
smiles,measurement,value
"CC(=O)N1CCN(c2ccc(OCC3COC(Cn4ccnc4)(c4ccc(Cl)cc4Cl)O3)cc2)CC1 (stereo not shown) [Raw material (Active ingredient), ketoconazole]",Average particle size,10.41 μm

# From patent US8211470B2, “Method for preparing nano-scale or amorphous particle using solid fat as a solvent” (Bio-Synectics Inc., priority 2003, dated 2012)
